One assay in a line: cells. The format is functional, cell-based.
Assay [1] addresses T1, Serine/threonine-protein phosphatase (Candida dubliniensis (strain CD36 / CBS 7987 / NCPF 3949 / NRRLY-17841) (Yeast), UniProt B9W6M3).
T1 sequence (B9W6M3 whole entry): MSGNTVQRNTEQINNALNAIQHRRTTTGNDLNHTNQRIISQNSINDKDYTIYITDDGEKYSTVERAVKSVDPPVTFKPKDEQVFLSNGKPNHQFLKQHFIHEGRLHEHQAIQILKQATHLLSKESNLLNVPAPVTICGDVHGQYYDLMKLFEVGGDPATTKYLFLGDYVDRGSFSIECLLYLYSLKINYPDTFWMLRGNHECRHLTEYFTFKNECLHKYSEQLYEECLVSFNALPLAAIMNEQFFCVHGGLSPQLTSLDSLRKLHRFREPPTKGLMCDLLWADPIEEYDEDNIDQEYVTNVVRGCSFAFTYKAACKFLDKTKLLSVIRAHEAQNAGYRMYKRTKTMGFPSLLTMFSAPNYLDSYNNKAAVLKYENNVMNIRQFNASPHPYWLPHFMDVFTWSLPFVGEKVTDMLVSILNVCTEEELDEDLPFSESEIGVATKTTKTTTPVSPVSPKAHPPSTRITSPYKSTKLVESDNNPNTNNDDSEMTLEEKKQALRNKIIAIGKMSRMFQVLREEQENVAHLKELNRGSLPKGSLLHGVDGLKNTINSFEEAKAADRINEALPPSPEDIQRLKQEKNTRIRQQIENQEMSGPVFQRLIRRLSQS
Briefly: blockers of CaCl2-induced CDRE-lacZ signaling – S. cerevisiae, luminescence, secondary, dose response (AID 2388).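 Also: yeast reporter cells carrying a calcineurin-responsive lacZ construct stimulated with calcium chloride; luminescent beta-galactosidase reporter signal in whole cells rather than isolated phosphatase activity; potency for inhibition where a drop in reporter signal means calcineurin blockade.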 It counts as functional, cell-based.

The test system of another assay is A-375. The assay can be described thus: MITF: Counter assay: A375 proliferation Measured in Cell-Based System Using Plate Reader - 2084-03_Inhibitor_Dose_DryPowder_Activity. [Related pubchem assays (depositor defined):AID488944]. The settings on record: Homo sapiens. The format is functional.
Assay [2] can be described thus: loss of viability in HepG2 cells – cell-based, CellTiter-Glo, cherry-picked, cytotoxicity control for Shn3 inhibitor project, dose response (AID 624134). It counts as functional.
A short description of assay [3]: DRD fibroblast viability loss – cell-based, non-viral oncogenic, luminescence, dose response (AID 1934). It counts as functional. The settings on record: Homo sapiens.
The target in assay [4] is cAMP-dependent protein kinase catalytic subunit alpha (Homo sapiens, UniProt P17612). The format is functional.
Assay [5] addresses High affinity nerve growth factor receptor (Homo sapiens, UniProt P04629). The format is functional.
Assay [6] has as its target Calcium/calmodulin-dependent protein kinase type II subunit delta (Homo sapiens, UniProt Q13557). It counts as functional.
Another assay addresses Misshapen-like kinase 1 (Homo sapiens, UniProt Q8N4C8). The format is functional.
Assay [7] deals with Hepatocyte growth factor receptor (Homo sapiens, UniProt P08581). The format is functional.
Assay [8] concerns the target Cyclin-dependent kinase 5 (Homo sapiens, UniProt Q00535). It counts as functional.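 Also: CDK5 measured as one member of a kinase profiling panel.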
Assay [9] has as its target Casein kinase I isoform alpha (Homo sapiens, UniProt P48729). It counts as functional.
Assay [10] deals with T2, Sentrin-specific protease 6 (Homo sapiens, UniProt Q9GZR1).
T2 sequence (Q9GZR1 whole entry): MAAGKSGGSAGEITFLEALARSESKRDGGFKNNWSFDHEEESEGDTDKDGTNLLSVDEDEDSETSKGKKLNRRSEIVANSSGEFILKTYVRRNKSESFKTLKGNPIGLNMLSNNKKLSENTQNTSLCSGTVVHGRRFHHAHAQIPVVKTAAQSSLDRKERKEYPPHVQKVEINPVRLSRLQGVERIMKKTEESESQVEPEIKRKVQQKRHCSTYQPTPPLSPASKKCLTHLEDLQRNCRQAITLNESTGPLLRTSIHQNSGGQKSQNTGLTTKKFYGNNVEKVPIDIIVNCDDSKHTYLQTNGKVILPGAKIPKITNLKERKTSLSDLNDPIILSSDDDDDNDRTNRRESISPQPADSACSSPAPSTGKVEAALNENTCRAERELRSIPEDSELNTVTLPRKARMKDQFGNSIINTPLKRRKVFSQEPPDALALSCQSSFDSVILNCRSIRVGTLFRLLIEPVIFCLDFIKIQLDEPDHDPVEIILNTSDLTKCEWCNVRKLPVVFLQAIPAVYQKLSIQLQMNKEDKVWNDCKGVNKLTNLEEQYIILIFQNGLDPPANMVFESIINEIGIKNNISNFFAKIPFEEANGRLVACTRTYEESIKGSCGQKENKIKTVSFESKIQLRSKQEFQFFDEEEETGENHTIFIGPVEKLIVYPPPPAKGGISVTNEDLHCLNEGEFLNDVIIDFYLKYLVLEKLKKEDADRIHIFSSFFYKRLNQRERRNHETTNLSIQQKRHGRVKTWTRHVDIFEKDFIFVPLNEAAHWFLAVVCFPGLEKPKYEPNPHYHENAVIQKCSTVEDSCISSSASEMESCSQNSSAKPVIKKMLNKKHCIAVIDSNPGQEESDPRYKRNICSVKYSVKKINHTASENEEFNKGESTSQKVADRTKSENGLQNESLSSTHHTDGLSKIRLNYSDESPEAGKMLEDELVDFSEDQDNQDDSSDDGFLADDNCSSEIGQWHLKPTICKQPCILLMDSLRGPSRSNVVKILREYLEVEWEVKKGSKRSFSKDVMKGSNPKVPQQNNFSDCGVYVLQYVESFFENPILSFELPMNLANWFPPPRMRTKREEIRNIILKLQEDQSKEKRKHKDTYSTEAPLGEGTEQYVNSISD
The format is functional.

The nature of assay [11]: Vero E6 cell cytotoxicity, dose response, cytotoxicity control for non-replicating M. tuberculosis project, secondary assay (AID 492998). The format is functional, VeroE6. The settings on record: Vero C1008.

Each structure is given as a SMILES string. Active and inactive are the calls of the source. Where only a bound is given, the exact number is not on record here.
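For IC50 in this document: Luminescence-based dose-response confirmatory assay of SENP6 inhibition, following up an ultra-high-throughput screen.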

Chain of Calcium/calmodulin-dependent protein kinase type II subunit delta (Q13557 whole entry): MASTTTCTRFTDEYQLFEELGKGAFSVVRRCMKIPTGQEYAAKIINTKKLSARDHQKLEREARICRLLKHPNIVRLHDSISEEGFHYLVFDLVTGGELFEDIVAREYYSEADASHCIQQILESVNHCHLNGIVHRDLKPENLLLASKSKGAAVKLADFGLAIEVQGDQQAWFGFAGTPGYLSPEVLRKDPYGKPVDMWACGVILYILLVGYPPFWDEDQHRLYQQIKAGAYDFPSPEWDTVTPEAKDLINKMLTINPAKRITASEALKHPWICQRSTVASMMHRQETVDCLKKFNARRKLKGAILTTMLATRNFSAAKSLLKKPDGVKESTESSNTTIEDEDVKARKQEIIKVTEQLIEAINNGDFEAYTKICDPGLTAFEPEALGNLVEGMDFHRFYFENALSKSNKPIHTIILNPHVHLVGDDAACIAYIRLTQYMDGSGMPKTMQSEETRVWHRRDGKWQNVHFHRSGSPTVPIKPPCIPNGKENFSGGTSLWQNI
Chain of Misshapen-like kinase 1 (Q8N4C8 whole entry): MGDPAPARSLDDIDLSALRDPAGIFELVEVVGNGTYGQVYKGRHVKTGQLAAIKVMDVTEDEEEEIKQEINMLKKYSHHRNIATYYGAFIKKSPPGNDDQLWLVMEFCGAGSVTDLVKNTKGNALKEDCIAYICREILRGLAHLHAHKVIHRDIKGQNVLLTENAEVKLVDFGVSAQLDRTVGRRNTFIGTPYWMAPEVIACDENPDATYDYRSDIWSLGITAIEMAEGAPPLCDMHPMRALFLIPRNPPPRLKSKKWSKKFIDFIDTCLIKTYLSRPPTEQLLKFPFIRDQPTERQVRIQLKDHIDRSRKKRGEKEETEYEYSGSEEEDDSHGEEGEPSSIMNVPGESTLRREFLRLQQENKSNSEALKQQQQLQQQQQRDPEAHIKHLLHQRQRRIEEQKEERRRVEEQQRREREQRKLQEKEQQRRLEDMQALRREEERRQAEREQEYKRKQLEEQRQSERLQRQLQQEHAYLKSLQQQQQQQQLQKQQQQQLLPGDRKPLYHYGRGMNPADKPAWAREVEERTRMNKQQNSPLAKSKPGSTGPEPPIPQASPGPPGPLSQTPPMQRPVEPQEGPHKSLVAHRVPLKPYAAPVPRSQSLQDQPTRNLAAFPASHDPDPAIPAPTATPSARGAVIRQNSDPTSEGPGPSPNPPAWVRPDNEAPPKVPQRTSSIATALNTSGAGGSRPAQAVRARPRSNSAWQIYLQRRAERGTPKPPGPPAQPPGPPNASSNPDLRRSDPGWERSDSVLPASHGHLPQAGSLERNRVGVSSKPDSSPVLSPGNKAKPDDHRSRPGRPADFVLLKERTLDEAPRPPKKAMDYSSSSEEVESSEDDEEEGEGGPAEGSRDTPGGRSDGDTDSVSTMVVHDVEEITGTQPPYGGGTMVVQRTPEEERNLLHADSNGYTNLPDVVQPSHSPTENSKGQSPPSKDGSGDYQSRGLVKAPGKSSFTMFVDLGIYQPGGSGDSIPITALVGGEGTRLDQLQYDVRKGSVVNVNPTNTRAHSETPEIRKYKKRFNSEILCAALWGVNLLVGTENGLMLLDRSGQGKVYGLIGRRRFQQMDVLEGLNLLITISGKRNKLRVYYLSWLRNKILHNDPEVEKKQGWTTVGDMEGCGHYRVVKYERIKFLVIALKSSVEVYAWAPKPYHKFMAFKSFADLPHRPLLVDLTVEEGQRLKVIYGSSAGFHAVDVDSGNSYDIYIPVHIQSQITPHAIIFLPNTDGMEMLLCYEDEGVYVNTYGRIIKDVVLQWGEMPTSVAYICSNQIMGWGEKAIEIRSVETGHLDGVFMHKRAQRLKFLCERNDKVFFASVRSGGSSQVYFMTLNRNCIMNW
Chain of Cyclin-dependent kinase 5 (Q00535 whole entry, canonical isoform): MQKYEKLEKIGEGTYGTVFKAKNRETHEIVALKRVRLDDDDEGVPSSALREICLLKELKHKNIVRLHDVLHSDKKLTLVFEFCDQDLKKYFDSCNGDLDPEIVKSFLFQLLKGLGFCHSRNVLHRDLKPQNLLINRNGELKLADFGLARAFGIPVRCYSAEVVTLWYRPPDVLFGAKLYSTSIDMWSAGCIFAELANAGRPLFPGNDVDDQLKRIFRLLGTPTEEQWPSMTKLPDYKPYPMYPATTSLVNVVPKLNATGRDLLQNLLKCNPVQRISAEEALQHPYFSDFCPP
Chain of Hepatocyte growth factor receptor (P08581 whole entry): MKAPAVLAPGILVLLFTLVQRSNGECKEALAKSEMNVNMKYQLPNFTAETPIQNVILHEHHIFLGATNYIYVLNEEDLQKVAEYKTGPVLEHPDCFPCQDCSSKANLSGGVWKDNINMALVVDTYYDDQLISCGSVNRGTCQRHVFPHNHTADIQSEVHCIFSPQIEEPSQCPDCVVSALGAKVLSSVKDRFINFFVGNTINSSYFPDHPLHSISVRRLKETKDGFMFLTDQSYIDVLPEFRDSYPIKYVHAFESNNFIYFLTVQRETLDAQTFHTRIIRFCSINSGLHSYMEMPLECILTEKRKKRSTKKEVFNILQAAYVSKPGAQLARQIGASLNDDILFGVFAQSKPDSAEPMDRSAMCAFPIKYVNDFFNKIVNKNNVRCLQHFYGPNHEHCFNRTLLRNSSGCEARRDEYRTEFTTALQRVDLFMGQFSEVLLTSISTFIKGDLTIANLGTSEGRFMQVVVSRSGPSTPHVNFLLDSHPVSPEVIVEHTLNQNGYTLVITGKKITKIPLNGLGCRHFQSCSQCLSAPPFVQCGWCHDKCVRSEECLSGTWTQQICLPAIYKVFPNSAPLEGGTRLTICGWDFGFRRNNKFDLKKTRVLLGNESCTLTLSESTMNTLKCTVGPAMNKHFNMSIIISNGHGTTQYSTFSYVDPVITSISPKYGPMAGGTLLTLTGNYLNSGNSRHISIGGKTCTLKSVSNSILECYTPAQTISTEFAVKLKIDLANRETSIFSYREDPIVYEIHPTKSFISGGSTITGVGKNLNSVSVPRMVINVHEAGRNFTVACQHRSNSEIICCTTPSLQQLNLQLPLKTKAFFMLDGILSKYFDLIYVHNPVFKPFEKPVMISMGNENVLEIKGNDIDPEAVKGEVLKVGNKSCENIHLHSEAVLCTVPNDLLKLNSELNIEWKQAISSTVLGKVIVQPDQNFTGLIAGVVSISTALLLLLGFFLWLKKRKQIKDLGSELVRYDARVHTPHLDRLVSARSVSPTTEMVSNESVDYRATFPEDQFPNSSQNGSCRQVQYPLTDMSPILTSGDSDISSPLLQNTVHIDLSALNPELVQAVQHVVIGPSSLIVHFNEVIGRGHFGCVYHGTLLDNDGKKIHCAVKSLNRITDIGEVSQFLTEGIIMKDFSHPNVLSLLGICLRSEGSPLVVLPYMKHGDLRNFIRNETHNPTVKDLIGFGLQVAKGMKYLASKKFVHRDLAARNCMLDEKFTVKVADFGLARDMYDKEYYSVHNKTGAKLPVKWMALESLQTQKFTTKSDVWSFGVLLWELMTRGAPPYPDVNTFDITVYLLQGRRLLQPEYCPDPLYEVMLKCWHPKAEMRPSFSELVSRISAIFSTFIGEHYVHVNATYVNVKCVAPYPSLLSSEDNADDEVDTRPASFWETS
Chain of High affinity nerve growth factor receptor (P04629 whole entry): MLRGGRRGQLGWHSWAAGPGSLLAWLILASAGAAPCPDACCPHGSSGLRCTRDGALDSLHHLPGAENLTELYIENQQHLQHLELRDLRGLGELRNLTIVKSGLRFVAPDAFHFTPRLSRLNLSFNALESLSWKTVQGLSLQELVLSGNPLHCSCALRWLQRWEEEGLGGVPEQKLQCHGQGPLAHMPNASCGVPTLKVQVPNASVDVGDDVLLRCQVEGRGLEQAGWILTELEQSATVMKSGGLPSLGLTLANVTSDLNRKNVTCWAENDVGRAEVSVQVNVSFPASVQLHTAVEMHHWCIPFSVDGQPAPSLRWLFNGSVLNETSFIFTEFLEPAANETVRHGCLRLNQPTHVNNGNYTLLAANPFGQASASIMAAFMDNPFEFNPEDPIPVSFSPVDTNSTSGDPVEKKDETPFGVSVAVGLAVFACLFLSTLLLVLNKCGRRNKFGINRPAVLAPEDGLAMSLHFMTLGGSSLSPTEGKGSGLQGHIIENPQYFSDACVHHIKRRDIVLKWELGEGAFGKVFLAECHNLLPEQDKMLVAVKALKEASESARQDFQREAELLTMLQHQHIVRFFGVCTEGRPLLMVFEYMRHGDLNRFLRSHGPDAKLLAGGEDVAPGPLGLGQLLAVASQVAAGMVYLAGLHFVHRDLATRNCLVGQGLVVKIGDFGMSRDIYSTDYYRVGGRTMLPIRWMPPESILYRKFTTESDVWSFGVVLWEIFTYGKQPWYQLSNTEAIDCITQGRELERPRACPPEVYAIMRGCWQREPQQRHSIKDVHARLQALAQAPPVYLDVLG
Chain of Casein kinase I isoform alpha (P48729 whole entry, canonical isoform): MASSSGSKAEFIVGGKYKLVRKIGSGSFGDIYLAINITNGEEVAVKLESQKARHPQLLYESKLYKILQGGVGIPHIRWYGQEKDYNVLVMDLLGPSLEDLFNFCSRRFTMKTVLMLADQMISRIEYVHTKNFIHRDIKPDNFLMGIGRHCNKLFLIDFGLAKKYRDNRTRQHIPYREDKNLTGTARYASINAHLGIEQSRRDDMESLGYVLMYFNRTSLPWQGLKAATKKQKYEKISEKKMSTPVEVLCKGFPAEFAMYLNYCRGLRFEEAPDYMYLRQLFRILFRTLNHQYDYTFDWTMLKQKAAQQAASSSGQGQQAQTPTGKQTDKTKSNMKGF

As usually defined, the EC50 is the concentration giving half of the maximal effect. Regarding `CC(C)CC(=O)NC(c1cccs1)c1ccc2cccnc2c1O` (configuration not stated), the EC50 is > 350 µM (not active) in “cells” and > 180 µM (inactive) in assay [1].
As a reminder, the AC50 is the concentration at which the activity in the assay is half-maximal. In the case of `CCOC(=O)c1ccc(NC2=CC(=O)C(=O)c3ccccc32)cc1`, the AC50 in the assay on A-375 is 6.65 µM (active).
As to `OC(CNCCC1C=Nc2ccccc21)Cn1c2ccc(Cl)cc2c2cc(Cl)ccc21` (configuration not stated), the AC50 in assay [2] was 9.39 µM (active). The 50% effective concentration (EC50) in assay [3] is 9.1 µM (active).
A word on the Ki: it is a measure of affinity in units of concentration, obtained from inhibition or displacement. As usually defined, the pKi is −log10 of the Ki, conventionally taken in molar units. Regarding `NC1CCC(Nc2nc(Cl)cc(-c3c[nH]c4ncccc34)n2)CC1` (configuration not stated), the Ki in assay [4] is 0.00794 µM (active); in assay [5], > 3.16 µM (inactive); in assay [6], 0.251 µM (active); on Misshapen-like kinase 1, 0.02 µM (active). The results for the pKi (in [4]; in [6]; at Misshapen-like kinase 1) were 8.1, 6.6 and 7.7, respectively.
As to `O=C(O)C1CN(Cc2ccc(OCc3ccccc3)cc2Cl)C1`, the values for the Ki in [7], in assay [8] and in [9] were > 2.51 µM (inactive), > 3.16 µM (inactive) and > 3.98 µM (inactive), respectively.
One may read the IC50 as the midpoint of a concentration-inhibition curve. For `COc1ccc(C(=O)c2nccc3cc(OC)c(OC)cc23)cc1OC`, in [10], the concentration for half-maximal inhibition (IC50) is 0.805 µM (active).
The CC50 is the concentration that lowers cell viability or growth by half. As for `Cc1ccccc1-c1cc2c(nn1)-c1ccccc1C2=O`, the CC50 in assay [11] is 9.21 µM (active).

Source of the values: ChEMBL document CHEMBL1201862, “PubChem BioAssay data set” (2004).
